According to patent US20220389007A1, “INHIBITORS OF HUMAN IMMUNODEFICIENCY VIRUS REPLICATION” (VIIV HEALTHCARE UK (No. 5) LIMITED, priority 2019, published 2022):

Legend:
[1] = Compound cytotoxicity, XTT-based colorimetric assay; type: cell-based; settings: human; uninfected MT2 cells, day 4, XTT assay
Outline: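 Run under the antiviral-assay protocol but without virus. Viability was read on day 4 and CC50 values were derived from the readout.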

recombinant NL4-3 virus = assay: HIV cell culture assay (antiviral activity, luciferase readout); type: cell-based; settings: Human immunodeficiency virus 1, NL43, MT2, MT-2 cells infected for 4-5 days with recombinant NL4-3 virus carrying Renilla luciferase
Outline: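 MT-2 cells infected for 4-5 days with NL4-3 reference virus carrying Renilla luciferase in place of part of nef, in presence of serial compound dilutions. Luciferase read with live-cell substrate; EC50 from median effect equation fit.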

Row | Compound | CC50 at 4 day [1] [nM] | EC50 (recombinant NL4-3 virus) [nM]
1 | Cc1cc(-c2ccc3c(=O)n(-c4ccc(Cl)c5c(NS(C)(=O)=O)nn(C)c45)c([C@H](Cc4cc(F)cc(F)c4)NC(=O)Cn4nc(C(F)F)c5c4C(F)(F)[C@@H]4C[C@H]54)nc3n2)n[nH]1 (atropisomer, axis not shown; (P)) [Example 98, N-((S)-1-((3P)-3-(4-chloro-1-methyl-3-(methylsulfonamido)-1H-indazol-7-yl)-7-(5-methyl-1H-pyrazol-3-yl)-4-oxo-3,4-dihydropyrido[2,3-d]pyrimidin-2-yl)-2-(3,5-difluorophenyl)ethyl)-2-((3bS,4aR)-3-(difluoromethyl)-5,5-difluoro-3b,4,4a,5-tetrahydro-1H-cyclopropa[3,4]cyclopenta[1,2-c]pyrazol-1-yl)acetamide] | > 100 | 0.2
2 | Cn1nc(NS(C)(=O)=O)c2c(Cl)ccc(-n3c([C@H](Cc4cc(F)cc(F)c4)NC(=O)Cn4nc(C(F)F)c5c4C(F)(F)[C@@H]4C[C@H]54)nc4nc(-c5cnn(CCF)c5)ccc4c3=O)c21 (atropisomer, axis not shown; (P)) [Example 76, N-((S)-1-((3P)-3-(4-chloro-1-methyl-3-(methylsulfonamido)-1H-indazol-7-yl)-7-(1-(2-fluoroethyl)-1H-pyrazol-4-yl)-4-oxo-3,4-dihydropyrido[2,3-d]pyrimidin-2-yl)-2-(3,5-difluorophenyl)ethyl)-2-((3bS,4aR)-3-(difluoromethyl)-5,5-difluoro-3b,4,4a,5-tetrahydro-1H-cyclopropa[3,4]cyclopenta[1,2-c]pyrazol-1-yl)acetamide] | > 100 | 0.11
3 | COc1cc(-c2ccc3c(=O)n(-c4ccc(Cl)c5c(NS(C)(=O)=O)nn(C)c45)c([C@H](Cc4cc(F)cc(F)c4)NC(=O)Cn4nc(C(F)F)c5c4C(F)(F)[C@@H]4C[C@H]54)nc3n2)ccn1 (atropisomer, axis not shown; (P)) [Example 59, N-((S)-1-((3P)-3-(4-chloro-1-methyl-3-(methylsulfonamido)-1H-indazol-7-yl)-7-(2-methoxypyridin-4-yl)-4-oxo-3,4-dihydropyrido[2,3-d]pyrimidin-2-yl)-2-(3,5-difluorophenyl)ethyl)-2-((3bS,4aR)-3-(difluoromethyl)-5,5-difluoro-3b,4,4a,5-tetrahydro-1H-cyclopropa[3,4]cyclopenta[1,2-c]pyrazol-1-yl)acetamide] | > 100 | 0.05
4 | Cn1nc(NS(C)(=O)=O)c2c(Cl)ccc(-n3c([C@H](Cc4cc(F)cc(F)c4)NC(=O)Cn4nc(C(F)F)c5c4C(F)(F)[C@@H]4C[C@H]54)nc4nc(-c5cccc(C(F)F)n5)ccc4c3=O)c21 (atropisomer, axis not shown; (P)) [Example 38, N-((S)-1-((3P)-3-(4-chloro-1-methyl-3-(methylsulfonamido)-1H-indazol-7-yl)-7-(6-(difluoromethyl)pyridin-2-yl)-4-oxo-3,4-dihydropyrido[2,3-d]pyrimidin-2-yl)-2-(3,5-difluorophenyl)ethyl)-2-((3bS,4aR)-3-(difluoromethyl)-5,5-difluoro-3b,4,4a,5-tetrahydro-1H-cyclopropa[3,4]cyclopenta[1,2-c]pyrazol-1-yl)acetamide] | > 100 | 0.051
5 | Cc1cccc(-c2ccc3c(=O)n(-c4ccc(Cl)c5c(NS(C)(=O)=O)nn(C)c45)c([C@H](Cc4cc(F)cc(F)c4)NC(=O)Cn4nc(C(F)F)c5c4C(F)(F)[C@@H]4C[C@H]54)nc3n2)n1 (atropisomer, axis not shown; (P)) [Example 31, N-((S)-1-((3P)-3-(4-chloro-1-methyl-3-(methylsulfonamido)-1H-indazol-7-yl)-7-(6-methylpyridin-2-yl)-4-oxo-3,4-dihydropyrido[2,3-d]pyrimidin-2-yl)-2-(3,5-difluorophenyl)ethyl)-2-((3bS,4aR)-3-(difluoromethyl)-5,5-difluoro-3b,4,4a,5-tetrahydro-1H-cyclopropa[3,4]cyclopenta[1,2-c]pyrazol-1-yl)acetamide] | > 100 | 0.031
6 | Cn1nc(NS(C)(=O)=O)c2c(Cl)ccc(-n3c([C@H](Cc4cc(F)cc(F)c4)NC(=O)Cn4nc(C(F)F)c5c4C(F)(F)[C@@H]4C[C@H]54)nc4ncc(-c5nccc(C(F)F)n5)cc4c3=O)c21 (atropisomer, axis not shown; (P)) [Example 2, N-((S)-1-((3P)-3-(4-chloro-1-methyl-3-(methylsulfonamido)-1H-indazol-7-yl)-6-(4-(difluoromethyl)pyrimidin-2-yl)-4-oxo-3,4-dihydropyrido[2,3-d]pyrimidin-2-yl)-2-(3,5-difluorophenyl)ethyl)-2-((3bS,4aR)-3-(difluoromethyl)-5,5-difluoro-3b,4,4a,5-tetrahydro-1H-cyclopropa[3,4]cyclopenta[1,2-c]pyrazol-1-yl)acetamide] | > 100 | 0.031
7 | Cc1cc(-c2ccc3c(=O)n(-c4ccc(Cl)c5c(NS(C)(=O)=O)nn(C)c45)c([C@H](Cc4cc(F)cc(F)c4)NC(=O)Cn4nc(C(F)F)c5c4C(F)(F)[C@@H]4C[C@H]54)nc3n2)n(CC(C)(F)F)n1 (single isomer, unassigned) [Example 97] | > 100 | 12
8 | COc1cncc(-c2ccc3c(=O)n(-c4ccc(Cl)c5c(NS(C)(=O)=O)nn(C)c45)c([C@H](Cc4cc(F)cc(F)c4)NC(=O)Cn4nc(C(F)F)c5c4C(F)(F)[C@@H]4C[C@H]54)nc3n2)n1 (atropisomer, axis not shown; (P)) [Example 54, N-((S)-1-((3P)-3-(4-chloro-1-methyl-3-(methylsulfonamido)-1H-indazol-7-yl)-7-(6-methoxypyrazin-2-yl)-4-oxo-3,4-dihydropyrido[2,3-d]pyrimidin-2-yl)-2-(3,5-difluorophenyl)ethyl)-2-((3bS,4aR)-3-(difluoromethyl)-5,5-difluoro-3b,4,4a,5-tetrahydro-1H-cyclopropa[3,4]cyclopenta[1,2-c]pyrazol-1-yl)acetamide] | > 100 | 0.039
9 | Cn1nc(NS(C)(=O)=O)c2c(Cl)ccc(-n3c([C@H](Cc4cc(F)cc(F)c4)NC(=O)Cn4nc(C(F)F)c5c4C(F)(F)[C@@H]4C[C@H]54)nc4nc(-n5cc(C(F)(F)F)cn5)ccc4c3=O)c21 (atropisomer, axis not shown; (P)) [Example 66, N-((S)-1-((3P)-3-(4-chloro-1-methyl-3-(methylsulfonamido)-1H-indazol-7-yl)-4-oxo-7-(4-(trifluoromethyl)-1H-pyrazol-1-yl)-3,4-dihydropyrido[2,3-d]pyrimidin-2-yl)-2-(3,5-difluorophenyl)ethyl)-2-((3bS,4aR)-3-(difluoromethyl)-5,5-difluoro-3b,4,4a,5-tetrahydro-1H-cyclopropa[3,4]cyclopenta[1,2-c]pyrazol-1-yl)acetamide] | > 100 | 0.07
10 | Cn1nc(NS(C)(=O)=O)c2c(Cl)ccc(-n3c([C@H](Cc4cc(F)cc(F)c4)NC(=O)Cn4nc(C(F)F)c5c4C(F)(F)[C@@H]4C[C@H]54)nc4nc(-c5ncccn5)ccc4c3=O)c21 (atropisomer, axis not shown; (P)) [Example 47, N-((S)-1-((3P)-3-(4-chloro-1-methyl-3-(methylsulfonamido)-1H-indazol-7-yl)-4-oxo-7-(pyrimidin-2-yl)-3,4-dihydropyrido[2,3-d]pyrimidin-2-yl)-2-(3,5-difluorophenyl)ethyl)-2-((3bS,4aR)-3-(difluoromethyl)-5,5-difluoro-3b,4,4a,5-tetrahydro-1H-cyclopropa[3,4]cyclopenta[1,2-c]pyrazol-1-yl)acetamide] | > 100 | 0.067
11 | Cc1cc(-c2ccc3c(=O)n(-c4ccc(Cl)c5c(NS(C)(=O)=O)nn(C)c45)c([C@H](Cc4cc(F)cc(F)c4)NC(=O)Cn4nc(C(F)F)c5c4C(F)(F)[C@@H]4C[C@H]54)nc3n2)ccn1 (atropisomer, axis not shown; (P)) [Example 48, N-((S)-1-((3P)-3-(4-chloro-1-methyl-3-(methylsulfonamido)-1H-indazol-7-yl)-7-(2-methylpyridin-4-yl)-4-oxo-3,4-dihydropyrido[2,3-d]pyrimidin-2-yl)-2-(3,5-difluorophenyl)ethyl)-2-((3bS,4aR)-3-(difluoromethyl)-5,5-difluoro-3b,4,4a,5-tetrahydro-1H-cyclopropa[3,4]cyclopenta[1,2-c]pyrazol-1-yl)acetamide] | > 100 | 0.053
12 | Cn1nc(NS(C)(=O)=O)c2c(Cl)ccc(-n3c([C@H](Cc4cc(F)cc(F)c4)NC(=O)Cn4nc(C(F)F)c5c4C(F)(F)[C@@H]4C[C@H]54)nc4nc(-c5ccn(CC(F)(F)C(F)F)n5)ccc4c3=O)c21 (atropisomer, axis not shown; (P)) [Example 84, N-((S)-1-((3P)-3-(4-chloro-1-methyl-3-(methylsulfonamido)-1H-indazol-7-yl)-4-oxo-7-(1-(2,2,3,3-tetrafluoropropyl)-1H-pyrazol-3-yl)-3,4-dihydropyrido[2,3-d]pyrimidin-2-yl)-2-(3,5-difluorophenyl)ethyl)-2-((3bS,4aR)-3-(difluoromethyl)-5,5-difluoro-3b,4,4a,5-tetrahydro-1H-cyclopropa[3,4]cyclopenta[1,2-c]pyrazol-1-yl)acetamide] | > 100 | 0.041
13 | Cn1nc(NS(C)(=O)=O)c2c(Cl)ccc(-n3c([C@H](Cc4cc(F)cc(F)c4)NC(=O)Cn4nc(C(F)F)c5c4C(F)(F)[C@@H]4C[C@H]54)nc4nc(-n5cnc(C(F)(F)F)n5)ccc4c3=O)c21 (atropisomer, axis not shown; (P)) [Example 80, N-((S)-1-((3P)-3-(4-chloro-1-methyl-3-(methylsulfonamido)-1H-indazol-7-yl)-4-oxo-7-(3-(trifluoromethyl)-1H-1,2,4-triazol-1-yl)-3,4-dihydropyrido[2,3-d]pyrimidin-2-yl)-2-(3,5-difluorophenyl)ethyl)-2-((3bS,4aR)-3-(difluoromethyl)-5,5-difluoro-3b,4,4a,5-tetrahydro-1H-cyclopropa[3,4]cyclopenta[1,2-c]pyrazol-1-yl)acetamide] | > 100 | 0.028
